The results in this text go back to PubChem BioAssay (NCI).

Each structure is given as a SMILES string. “And” between values parts separate entries of the source, which are not always exact repeats. Equal entries are not always repeated.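 Step 1: Grow cells in 96-well plates. Step 2: Expose to compound for 48 hours at 5 concentrations. Step 3: Interpolate endpoints linearly; if unreached, use highest concentration. GI50: concentration for 50% inhibition of growth. TGI denotes the concentration required for complete inhibition of growth.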 Where a SMILES comes first, the peptide text is derived from it. The star is where a group is joined. Boc = CC(C)(C)OC(=O)*; OBn = c1ccc(CO*)cc1; Bn = c1ccc(C*)cc1

What all share (test): growth of human tumour cells (NCI), 48 h
The test system of experiment [1] is DU-145 prostate.
In experiment [2] the test system is T-47D breast.
Experiment [3] relates to MDA-MB-231 breast.
In experiment [4] the test system is SK-MEL-5 melanoma.
In experiment [5] the test system is SK-MEL-28 melanoma.
Experiment [6] relates to HCT-15 colon.
The test system of experiment [7] is SR leukemia.
Experiment [8] has as its system HL-60(TB) leukemia.
In experiment [9] the test system is EKVX NSCLC.
Experiment [10] concerns SF-539 CNS.
The subject of experiment [11] is SF-295 CNS.

For `CCN(CC)P1(=S)Oc2ccc3ccccc3c2-c2c(ccc3ccccc23)O1`, the TGI in experiment [1], in experiment [2], in experiment [3], in experiment [4], in experiment [5] and in [6] was > 100 µM each time. Besides, the TGI in [7], in [8], in experiment [9], in [10] and in [11] was > 100 µM throughout.

Take `COc1ccc(OC)c2c1C[C@@H]1C(C#N)N3[C@H](Cc4c(OC)ccc(OC)c4[C@@H]3C)C(=O)N1[C@H]2C` (stereo partly drawn): the TGI in experiment [1] was > 54.7 µM; in experiment [2], 15.1 µM; in experiment [3] it was 7.56 µM; in experiment [4], 3.25 µM; in [5] it was 10.1 µM; in experiment [6], 11.2 µM. Moreover, the TGI in experiment [7] is 9.12 µM; in experiment [8] it was 6.18 µM; in experiment [9] it was 20.5 µM; in experiment [10] it was 5.97 µM; in experiment [11], 35.7 µM.

For the compound `CC(=O)c1nc2ccccc2n1CC(=O)c1ccc([N+](=O)[O-])cc1`, the TGI in experiment [1], in experiment [2], in experiment [3], in [5], in [6] and in experiment [7] was > 100 µM in each case. In addition, the TGI is > 100 µM in experiment [8], > 100 µM in experiment [9], > 100 µM in [10] and 36.1 µM in [11].

With `C[N+](C)(C)CCCCCc1c2nc(c(CCCCC[N+](C)(C)C)c3ccc([nH]3)c(CCCCC[N+](C)(C)C)c3ccc([nH]3)c(CCCCC[N+](C)(C)C)c3nc1C=C3)C=C2`, the TGI in experiment [1], in [2], in experiment [3], in experiment [4], in experiment [5] and in [6] was > 100 µM each time. For the same compound, the TGI in experiment [7], in [8], in experiment [9], in experiment [10] and in experiment [11] was > 100 µM in each case.

In the case of `C#CCNC(Cc1ccccc1)C(=O)O` (stereo not drawn), the TGI in experiment [1], in experiment [2], in experiment [3], in experiment [4], in experiment [5] and in [6] was > 100 µM in each case. Besides, the TGI in [7], in experiment [8], in experiment [9] and in experiment [11] was > 100 µM throughout.

For the compound `CC1CCN(c2nnc(Cl)cc2C(=O)c2ccccc2)CC1`, the TGI in experiment [1] is > 100 µM; in experiment [2] it was > 100 µM; in [3], 96.2 µM; in experiment [4] it was 31.1 µM; in [5] it was > 100 µM; in experiment [6] it was > 100 µM. In addition, the TGI in experiment [7] is 45.6 µM; in [8], > 100 µM; in experiment [9] it was > 100 µM; in experiment [10], 77.4 µM; in [11] it was 83.9 µM.

Consider `CCCCc1cc2c(cc1O)CCC1C2CC[C@@]2(C)C1CC[C@@H]2O` (stereo partly drawn), for which the TGI in [1] was 35.3 µM; in experiment [2], 35.8 µM; in [3] it was 62.1 µM; in [4], 39.2 µM; in experiment [5], 45.1 µM; in [6] it was > 100 µM. Besides, the TGI was determined as 51.3 µM in experiment [7], 33.6 µM in experiment [9], 59.3 µM in experiment [10] and 35.8 µM in experiment [11].

In the case of `COc1ccc(N=NN2CCCC2)cc1`, the TGI in [1] was > 100 µM; in [2], 49.2 µM; in experiment [3] it was 47.7 µM; in experiment [4], > 100 µM; in [5], > 100 µM; in experiment [6] it was 60.7 µM. Further, the TGI in experiment [7] is > 100 µM; in experiment [8] it was > 100 µM; in experiment [9] it was 58.8 µM; in [10] it was 66.7 µM; in [11], > 100 µM.

With `C=C1C(=O)OC2C(C)C3C=CC(=O)[C@@]3(C)C(OC(=O)/C(C)=C/C)C1[C@@H]2OC(C)=O` (stereo partly drawn), the TGI in [1] turned out to be 3.23 µM; in experiment [2], 2.13 µM; in [3], 0.678 µM; in experiment [4], 2.78 µM; in experiment [5], 1.76 µM; in [6] it was 0.782 µM. Further, the TGI in [7] was 3.61 µM; in [9], 1.27 µM; in [10], 0.987 µM; in experiment [11], 2.81 µM.

With `CCOC(=O)c1ccc(N=C/C=C(\Nc2ccc(C(=O)OCC)cc2)c2ccc3ccccc3c2)cc1`, the TGI was > 100 µM in experiment [1]; 43.2 µM in experiment [2]; 80.6 µM in [3]; 34.7 µM in experiment [4]; 61.1 µM in experiment [5]; 61.1 µM in experiment [6]. For the same compound, the TGI in experiment [7] was 41.6 µM; in experiment [8], 70.8 µM; in experiment [10], 39.2 µM; in [11] it was > 100 µM.

Take `COC(=O)CCCc1ccc2c(c1)CCC2`: the TGI in experiment [1], in [2], in experiment [3], in experiment [4], in experiment [5] and in experiment [6] was > 100 µM each time. Also, the TGI in [7], in [8], in experiment [10] and in experiment [11] was > 100 µM in each case.

Turning to `CC(C)(C)[Si](C)(C)OCC1OC(n2ccc(=O)[nH]c2=O)C(O[Si](C)(C)C(C)(C)C)/C1=N/O` (stereo not drawn), the TGI in experiment [1] was determined as 28.5 µM; in experiment [2], 24.2 µM; in [3], 54.6 µM; in experiment [4], 6.07 µM; in experiment [5], 9.69 µM; in [6], 12.1 µM. In addition, the TGI was 7.28 µM in [7], 16.1 µM in experiment [9], 10.9 µM in experiment [10] and > 40.7 µM in [11].

For the compound `CC1(C)COC(c2cccc(C3=NC(C)(C)CO3)c2)=N1`, the TGI in experiment [1], in [2], in [3], in experiment [4], in experiment [5] and in experiment [6] was > 100 µM each time. Also, the TGI in [7], in experiment [9] and in [10] was > 100 µM each time.

For `CCC(C#N)N(Cc1cccc(CN(C(C)=O)C(C#N)CC)c1)C(C)=O` (stereo not drawn), the TGI in [1], in [2], in [3], in [4], in [6] and in experiment [7] was > 100 µM in each case. Moreover, the TGI in experiment [8], in experiment [9], in experiment [10] and in experiment [11] was > 100 µM in each case.

With `S=C1c2cc(Cl)ccc2NC(=NC2CCCC2)C2CSCN12` (stereo not drawn), the TGI in [1], in experiment [2], in experiment [3], in [4], in [5] and in experiment [6] was > 100 µM in each case. In addition, the TGI in experiment [7], in experiment [9], in experiment [10] and in experiment [11] was > 100 µM in each case.

For the compound `CCCCc1ccc(N2C(=O)c3cc(C)cnc3S2(=O)=O)cc1`, the TGI in experiment [1], in experiment [2], in experiment [3], in experiment [4], in experiment [5] and in [6] was > 100 µM throughout. Besides, the TGI in experiment [7], in experiment [8], in experiment [9] and in experiment [11] was > 100 µM throughout.

With `CC(C)CC(NC(=O)C(Cc1ccccc1)NC(=O)C(COCc1ccccc1)NC(=O)OC(C)(C)C)C(=O)OCc1ccccc1` (stereo not drawn) (Boc-Ser(Bn)-Phe-Leu-OBn; configuration not given here), the TGI in experiment [1] is 25.2 µM; in experiment [2], > 100 µM; in experiment [3] it was 93 µM; in experiment [5], 42 µM; in experiment [6], 76 µM; in [7], 44.3 µM. For the same compound, the TGI came to 15.3 µM in experiment [8], 61.5 µM in [9], 72.3 µM in [10] and 51.1 µM in experiment [11].

As for `Cc1nc2c(=O)[nH]c(=O)nc-2n(CCO)c1C`, the TGI in experiment [1], in [2], in experiment [3], in experiment [4], in experiment [5] and in experiment [6] was > 100 µM each time. In addition, the TGI in experiment [7], in experiment [9], in experiment [10] and in experiment [11] was > 100 µM throughout.

Take `NC12c3c4cccc3Oc3cccc(c31)Oc1cccc(c12)O4`: the TGI in experiment [1], in experiment [2], in [3], in experiment [5], in [6] and in [7] was > 50 µM in each case. For the same compound, the TGI in experiment [8], in [9], in [10] and in [11] was > 50 µM throughout.

For `COc1ccc2cc(C(=O)NCCc3ccccc3)ccc2c1OC`, the TGI was > 100 µM in experiment [1]; > 100 µM in experiment [2]; 87.4 µM in [3]; > 100 µM in [4]; > 100 µM in experiment [5]; > 100 µM in experiment [6]. Further, the TGI in experiment [7] was > 100 µM; in experiment [9] it was > 100 µM; in [10], 70.3 µM; in experiment [11], > 100 µM.

As for `CCc1nnc2sc(-c3ccc(-c4ccc(Cl)cc4Cl)o3)nn12`, the TGI in experiment [1], in [2], in experiment [3], in experiment [4], in [5] and in experiment [6] was > 100 µM in each case. The TGI in [7], in experiment [8], in experiment [9] and in experiment [11] was > 100 µM throughout.

`c1ccc(COc2nc3ccc(C45CC6CC(CC(C6)C4)C5)cc3[nH]2)cc1`: the TGI was > 100 µM in [1]; 34.1 µM in experiment [2]; > 80.9 µM in experiment [3]; 14.6 µM in [4]; > 100 µM in [5]; > 29.5 µM in experiment [6]. The TGI in experiment [7] is > 100 µM; in experiment [8] it was 43.7 µM; in [9] it was > 100 µM; in experiment [11] it was > 100 µM.

As to `COC(=O)CP1(=O)OC2C(C3CCC2(C)C3(C)C)N1c1cc(C(F)(F)F)cc(C(F)(F)F)c1` (stereo not drawn), the TGI in experiment [1] was > 100 µM; in experiment [2], 71 µM; in experiment [3], 43.7 µM; in experiment [4], > 100 µM; in [5] it was > 100 µM; in experiment [6] it was 97.5 µM. Further, the TGI in [7] is 62.6 µM; in experiment [9] it was > 100 µM; in experiment [10], 45.8 µM; in [11], 48.2 µM.

For the compound `COC(=O)CSc1[nH]c2nc(C)nc(Nc3ccccc3)c2c1C#N`, the TGI in [1], in experiment [2], in experiment [3], in experiment [4], in [5] and in experiment [6] was > 10 µM throughout. Further, the TGI in [7], in experiment [8], in experiment [9] and in [11] was > 10 µM throughout.

Turning to `CC(=O)OCC1OC(n2c(-c3ccccc3)c(N=Nc3ccc(Cl)cc3)c(C)c(C#N)c2=S)C(OC(C)=O)C(OC(C)=O)C1OC(C)=O` (stereo not drawn), the GI50 is 25.3 µM and > 100 µM in experiment [1]; 6.86 µM and 27.2 µM in experiment [2]; 20.3 µM and 45.2 µM in experiment [3]; 4.01 µM and 10.4 µM in experiment [4]; 4.58 µM and 30.3 µM in experiment [5]; 7.59 µM and 59.8 µM in experiment [6]. Further, the GI50 in [7] was 11.5 µM and 34.9 µM; in experiment [8], 23 µM and 8.03 µM; in [11] it was 25.2 µM and 56.7 µM. In addition, the TGI in [1] is > 100 µM; in [2], 47.3 µM and > 100 µM; in experiment [3], > 100 µM; in experiment [4], 14.4 µM and 54.8 µM; in experiment [5] it was 16.9 µM and > 100 µM; in experiment [6], 29.1 µM and > 100 µM. The TGI in [7] is > 100 µM; in experiment [8], > 100 µM; in experiment [10], 43.7 µM and > 100 µM; in experiment [11] it was > 100 µM.
